Data as given in patent publication US10226045B2, “Azoline compounds” (priority 2014, dated 2019).

Legend:
Type in all cases: in vivo
[1] = tested on: Vetch Aphid (Megoura viciae); experiment: Vetch aphid, broad bean leaf disk test; conditions: foliar, 120 h, 2500 ppm, adult aphids on sprayed broad bean leaf disks, 5 days, in comparison with untreated controls, read-out: mortality
Method: B.3 Vetch Aphid (Megoura viciae)
For evaluating control of vetch aphid (Megoura viciae) through contact or systemic means the test unit consisted of 24-well-microtiter plates containing broad bean leaf disks.
The compounds were formulated using a solution containing 75% v/v water and 25% v/v DMSO. Different concentrations of formulated compounds were sprayed onto the leaf disks at 2.5 μl, using a custom built micro atomizer, at two replications.
After application, the leaf disks were air-dried and 5-8 adult aphids placed on the leaf disks inside the microtiter plate wells. The aphids were then allowed to suck on the treated leaf disks and incubated at about 23±1° C. and about 50±5% relative humidity for 5 days. Aphid mortality and fecundity was then visually assessed.

[2] = tested on: Tobacco Budworm (Heliothis virescens); experiment: Tobacco budworm, insect diet microtiter plate test; conditions: 120 h, 2500 ppm, eggs on sprayed insect diet, egg and larval mortality after 5 days, in comparison with untreated controls, read-out: mortality
Method: B.4 Tobacco Budworm (Heliothis virescens)
For evaluating control of tobacco budworm (HeliothiS virescens) the test unit consisted of 96-well-microtiter plates containing an insect diet and 15-25 H. virescens eggs.
The compounds were formulated using a solution containing 75% v/v water and 25% v/v DMSO. Different concentrations of formulated compounds were sprayed onto the insect diet at 10 μl, using a custom built micro atomizer, at two replications.
(§1) After application, microtiter plates were incubated at about 28±1° C. and about 80±5% relative humidity for 5 days. Egg and larval mortality was then visually assessed.

[3] = tested on: Mediterranean Fruitfly (Ceratitis capitata); experiment: Mediterranean fruitfly, insect diet microtiter plate test; conditions: 120 h, 2500 ppm, eggs on sprayed insect diet, egg and larval mortality after 5 days, in comparison with untreated controls, read-out: mortality
Method: B.6 Mediterranean Fruitfly (Ceratitis capitata)
For evaluating control of Mediterranean fruitfly (CeratitiS capitata) the test unit consisted of microtiter plates containing an insect diet and 50-80 C. capitata eggs. The compounds were formulated using a solution containing 75% v/v water and 25% v/v DMSO. Different concentrations of formulated compounds were sprayed onto the insect diet at 5 μl, using a custom built micro atomizer, at two replications.
as §1

[4] = tested on: Orchid Thrips (dichromothrips corbetti); experiment: Orchid thrips, floral-immersion technique; conditions: 300 ppm; adult thrips on dipped orchid petals; 72 hours after treatment; in comparison with untreated controls; read-out: mortality
Method: B.7 Orchid Thrips (dichromothrips corbetti)
Dichromothrips corbetti adults used for bioassay were obtained from a colony maintained continuously under laboratory conditions. For testing purposes, the test compound is diluted in a 1:1 mixture of acetone:water (vol:vol), plus Kinetic HV at a rate of 0.01% v/v.
Thrips potency of each compound was evaluated by using a floral-immersion technique. All petals of individual, intact orchid flowers were dipped into treatment solution and allowed to dry in Petri dishes. Treated petals were placed into individual re-sealable plastic along with about 20 adult thrips. All test arenas were held under continuous light and a temperature of about 28° C. for duration of the assay. After 3 days, the numbers of live thrips were counted on each petal. The percent mortality was recorded 72 hours after treatment.

[5] = tested on: Rice Green Leafhopper (Nephotettix virescens); experiment: Rice green leafhopper, sprayed rice seedlings; conditions: 300 ppm, adults on sprayed rice seedlings, after 72 hours, in comparison with untreated controls, read-out: mortality
Method: B.8 Rice Green Leafhopper (Nephotettix virescens)
Rice seedlings were cleaned and washed 24 hours before spraying. The active compounds were formulated in 1:1 acetone:water (vol:vol), and 0.01% vol/vol surfactant (Kinetic HV) was added. Potted rice seedlings were sprayed with 5-6 ml test solution, air dried, covered with Mylar cages cages and inoculated with 10 adults. Treated rice plants were kept at about 28-29° C. and relative humidity of about 50-60%. Percent mortality was recorded after 72 hours.

[6] = tested on: Red Spider Mite (Tetranychus kanzawai); experiment: Red spider mite, sprayed cowpea beans; conditions: 300 ppm, mites on sprayed cowpea beans, 72 hours after treatment, in comparison with untreated controls, read-out: mortality
Method: B.9 Red Spider Mite (Tetranychus kanzawai)
The active compound was dissolved at the desired concentration in a mixture of 1:1 (vol:vol) distilled water:acetone. Add surfactant (Kinetic HV) was added at a rate of 0.01% (vol/vol). The test solution was prepared at the day of use.
Potted cowpea beans of 4-5 days of age were cleaned with tap water and sprayed with 1-2 ml of the test solution using air driven hand atomizer. The treated plants were allowed to air dry and afterwards inoculated with 30 or more mites by clipping a cassava leaf section from rearing population. Treated plants were placed inside a holding room at about 25-27° C. and about 50-60% relative humidity. Percent mortality was assessed 72 hours after treatment.

[7] = tested on: Green Soldier Stink Bug (Nezara viridula); experiment: Green soldier stink bug, sprayed soybean pods in Petri dishes; conditions: 120 h, 300 ppm, late 3rd instar on soybean pods, after 5 days, in comparison with untreated controls, read-out: mortality
Method: B.11 Green Soldier Stink Bug (Nezara viridula)
The active compound was dissolved at the desired concentration in a mixture of 1:1 (vol:vol) distilled water:acetone. Surfactant (Kinetic HV) was added at a rate of 0.01% (vol/vol). The test solution was prepared at the day of use.
Soybean pods were placed in glass Petri dishes lined with moist filter paper and inoculated with ten late 3rd instar N. viridula. Using a hand atomizer, approximately 2 ml solution is sprayed into each Petri dish. Assay arenas were kept at about 25° C. Percent mortality was recorded after 5 days.

[8] = tested on: Neotropical Brown Stink Bug (Euschistus heros); experiment: Neotropical brown stink bug, sprayed soybean pods in cups; conditions: 120 h, 100 ppm, adults on soybean pods, after 5 days, in comparison with untreated controls, read-out: mortality
Method: B.12 Neotropical Brown Stink Bug (Euschistus heros)
(§2) The active compound was dissolved at the desired concentration in a mixture of 1:1 (vol:vol) distilled water: acetone. Surfactant (Kinetic HV) was added at a rate of 0.01% (vol/vol). The test solution was prepared at the day of use.
Soybean pods were placed in microwavable plastic cups and inoculated with ten adult stage E. heros. Using a hand atomizer, approximately 1 ml solution is sprayed into each cup, insects and food present. A water source was provided (cotton wick with water). Each treatment was replicated 2-fold. Assay arenas were kept at about 25° C. Percent mortality was recorded after 5 days.

[9] = tested on: Brown Marmorated Stink Bug (Halyomorpha halys); experiment: Brown marmorated stink bug, sprayed peanuts and soybean seeds in cups; conditions: 120 h, 100 ppm, adults on peanuts and soybean seeds, after 5 days, in comparison with untreated controls, read-out: mortality
Method: B.13 Brown Marmorated Stink Bug (Halyomorpha halys)
as §2
Row peanuts and soybean seeds were placed into microwavable plastic cups and inoculated with five adult stage H. halys. Using a hand atomizer, approximately 1 ml solution is sprayed into each cup, insects and food present. A water source was provided (cotton wick with water). Each treatment is replicated 4-fold. Assay arenas are kept at about 25° C. Percent mortality was recorded after 5 days.

O=C(NC1CS(=O)(=O)C1)c1ccc(C2=NCC(c3cc(Cl)c(F)c(Cl)c3)(C(F)(F)F)C2)c2c1CCC2 (stereo not drawn) [Compound 2-3, 7-[3-(3,5-Dichloro-4-fluoro-phenyl)-3-(trifluoromethyl)-2,4-dihydropyrrol-5-yl]-N-(1,1-dioxothietan-3-yl)indane-4-carboxamide]
≥ 75%: mortality at 2500 ppm [1] | mortality at 2500 ppm [2] | mortality at 2500 ppm [3] | mortality at 300 ppm [4] | mortality at 300 ppm [5] | mortality at 300 ppm [6] | mortality at 300 ppm [7] | mortality at 100 ppm [8] | mortality at 100 ppm [9]
